From the supplement of paper PMC10627819

Assays:
Experiment in all cases: fitness (endpoint OD595 vs no drug) (fraction); higher = more growth
[1] = tested on: S. aureus Newman
Outline: (§1)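 In 384-well plates at 37 °C, cultures began at OD595 0.01 in 30 µl, with 55 µl used for S. pneumoniae. OD595 readings every 30 min for 14 h were corrected by the first reading. Fitness divides the stationary-phase transition optical density by the robust mean of no-drug control wells. The result is capped at 1.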

[2] = tested on: S. pneumoniae D39V
Outline: as §1

[3] = tested on: B. subtilis 168
Outline: as §1

[4] = first compound 0.25 µg/mL, partner 0.0195 µg/mL
[5] = first compound 0.25 µg/mL, partner 0.039 µg/mL
[6] = first compound 0.25 µg/mL, partner 0.078 µg/mL
[7] = first compound 0.5 µg/mL, partner 0.0195 µg/mL
[8] = first compound 0.5 µg/mL, partner 0.039 µg/mL
[9] = first compound 0.5 µg/mL, partner 0.078 µg/mL
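Also: OD595 on entry to stationary phase over no-drug wells; at most 1.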

CC[C@H]1OC(=O)[C@H](C)[C@@H](O[C@H]2C[C@@](C)(OC)[C@@H](O)[C@H](C)O2)[C@H](C)[C@@H](O[C@@H]2O[C@H](C)C[C@H](N(C)C)[C@H]2O)[C@](C)(O)C[C@@H](C)CN(C)[C@H](C)[C@@H](O)[C@]1(C)O [Azithromycin] + CC1(C)S[C@@H]2[C@H](NC(=O)Cc3ccccc3)C(=O)N2[C@H]1C(=O)O [Penicillin G]
fitness ([1]; first compound 0.125 µg/mL, partner 0.0195 µg/mL): 0.844 | fitness ([1]; first compound 0.125 µg/mL, partner 0.039 µg/mL): 0.822 | fitness ([1]; first compound 0.125 µg/mL, partner 0.078 µg/mL): 0.775 | fitness [1, 4]: 0.729 | fitness [1, 5]: 0.77 | fitness [1, 6]: 0.741 | fitness [1, 7]: 0.513 | fitness [1, 8]: 0.452 | fitness [1, 9]: 0.411

CC1=C(C(=O)O)N2C(=O)[C@@H](NC(=O)[C@H](N)c3ccccc3)[C@H]2SC1 [Cephalexin] + CC1(C)S[C@@H]2[C@H](NC(=O)Cc3ccccc3)C(=O)N2[C@H]1C(=O)O [Penicillin G]
fitness [1, 4]: 0.891 | fitness [1, 5]: 0.927 | fitness [1, 6]: 0.875 | fitness [1, 7]: 0.785 | fitness [1, 8]: 0.937 | fitness [1, 9]: 0.897 | fitness ([1]; first compound 1 µg/mL, partner 0.0195 µg/mL): 0.811 | fitness ([1]; first compound 1 µg/mL, partner 0.039 µg/mL): 0.908 | fitness ([1]; first compound 1 µg/mL, partner 0.078 µg/mL): 0.944

O=C(O)[C@H]1/C(=C/CO)O[C@@H]2CC(=O)N21 [Clavulanic acid] + C/C(=C\C(=O)OCCCCCCCCC(=O)O)C[C@@H]1OC[C@H](C[C@@H]2O[C@H]2[C@@H](C)[C@H](C)O)[C@@H](O)[C@H]1O [Pseudomonic acid]
fitness ([2]; first compound 0.5 µg/mL, partner 0.03 µg/mL): 0.921 | fitness ([2]; first compound 0.5 µg/mL, partner 0.06 µg/mL): 0.769 | fitness ([2]; first compound 0.5 µg/mL, partner 0.12 µg/mL): 0.408 | fitness ([2]; first compound 1 µg/mL, partner 0.03 µg/mL): 0.906 | fitness ([2]; first compound 1 µg/mL, partner 0.06 µg/mL): 0.803 | fitness ([2]; first compound 1 µg/mL, partner 0.12 µg/mL): 0.519 | fitness ([2]; first compound 2 µg/mL, partner 0.03 µg/mL): 0.832 | fitness ([2]; first compound 2 µg/mL, partner 0.06 µg/mL): 0.656 | fitness ([2]; first compound 2 µg/mL, partner 0.12 µg/mL): 0.277

O=C(O)[C@H]1/C(=C/CO)O[C@@H]2CC(=O)N21 [Clavulanic acid] + CC1(C)S[C@@H]2[C@H](NC(=O)Cc3ccccc3)C(=O)N2[C@H]1C(=O)O [Penicillin G]
fitness ([1]; first compound 0.03125 µg/mL, partner 0.0195 µg/mL, one replicate): 0.934 | fitness ([1]; first compound 0.03125 µg/mL, partner 0.039 µg/mL, one replicate): 0.851 | fitness ([1]; first compound 0.03125 µg/mL, partner 0.078 µg/mL, one replicate): 0.846 | fitness ([1]; first compound 0.0625 µg/mL, partner 0.0195 µg/mL, one replicate): 0.859 | fitness ([1]; first compound 0.0625 µg/mL, partner 0.039 µg/mL, one replicate): 0.819 | fitness ([1]; first compound 0.0625 µg/mL, partner 0.078 µg/mL, one replicate): 0.694 | fitness ([1]; first compound 0.125 µg/mL, partner 0.0195 µg/mL, one replicate): 0.796 | fitness ([1]; first compound 0.125 µg/mL, partner 0.039 µg/mL, one replicate): 0.712 | fitness ([1]; first compound 0.125 µg/mL, partner 0.078 µg/mL, one replicate): 0.613

O=C(O)[C@H]1/C(=C/CO)O[C@@H]2CC(=O)N21 [Clavulanic acid] + CC(=O)NC[C@H]1CN(c2ccc(N3CCOCC3)c(F)c2)C(=O)O1 [Linezolid]
fitness ([3]; first compound 1.5 µg/mL, partner 0.0625 µg/mL, one replicate): 0.85 | fitness ([3]; first compound 1.5 µg/mL, partner 0.125 µg/mL): 0.659 | fitness ([3]; first compound 1.5 µg/mL, partner 0.25 µg/mL): 0.247 | fitness ([3]; first compound 1.5 µg/mL, partner 0.5 µg/mL): 0.0633 | fitness ([3]; first compound 3 µg/mL, partner 0.0625 µg/mL, one replicate): 0.773 | fitness ([3]; first compound 3 µg/mL, partner 0.125 µg/mL): 0.597 | fitness ([3]; first compound 3 µg/mL, partner 0.25 µg/mL): 0.184 | fitness ([3]; first compound 3 µg/mL, partner 0.5 µg/mL): 0.025 | fitness ([3]; first compound 6 µg/mL, partner 0.0625 µg/mL, one replicate): 0.789 | fitness ([3]; first compound 6 µg/mL, partner 0.125 µg/mL): 0.585 | fitness ([3]; first compound 6 µg/mL, partner 0.25 µg/mL): 0.151 | fitness ([3]; first compound 6 µg/mL, partner 0.5 µg/mL): 0.0316 | fitness ([2]; first compound 0.5 µg/mL, partner 0.105 µg/mL): 0.808 | fitness ([2]; first compound 0.5 µg/mL, partner 0.2 µg/mL): 0.474 | fitness ([2]; first compound 0.5 µg/mL, partner 0.21 µg/mL): 0.658 | fitness ([2]; first compound 0.5 µg/mL, partner 0.4 µg/mL): 0.261 | fitness ([2]; first compound 0.5 µg/mL, partner 0.42 µg/mL): 0.453 | fitness ([2]; first compound 0.5 µg/mL, partner 0.8 µg/mL): 0.075 | fitness ([2]; first compound 1 µg/mL, partner 0.105 µg/mL): 0.801 | fitness ([2]; first compound 1 µg/mL, partner 0.2 µg/mL): 0.531 | fitness ([2]; first compound 1 µg/mL, partner 0.21 µg/mL): 0.67 | fitness ([2]; first compound 1 µg/mL, partner 0.4 µg/mL): 0.363 | fitness ([2]; first compound 1 µg/mL, partner 0.42 µg/mL): 0.443 | fitness ([2]; first compound 1 µg/mL, partner 0.8 µg/mL): 0.226 | fitness ([2]; first compound 2 µg/mL, partner 0.105 µg/mL): 0.749 | fitness ([2]; first compound 2 µg/mL, partner 0.2 µg/mL): 0.392 | fitness ([2]; first compound 2 µg/mL, partner 0.21 µg/mL): 0.567 | fitness ([2]; first compound 2 µg/mL, partner 0.4 µg/mL): 0.22 | fitness ([2]; first compound 2 µg/mL, partner 0.42 µg/mL): 0.238 | fitness ([2]; first compound 2 µg/mL, partner 0.8 µg/mL): 0.102
